Data set [1] relates to 2019 novel coronavirus (SARS-CoV-2). The data set can be described thus: Inhibition of SARS-CoV-2 replication in Vero cells (qRT-PCR). The following applies: Severe acute respiratory syndrome coronavirus 2, 48 hours, virus copy number in supernatant by qRT-PCR. The class given is cell-based. On the technique in general: Real-time PCR tracks product formation cycle by cycle.
Data set [2] is described as follows: Cytotoxicity in Vero cells (SARS-CoV-2 test). In kind it is cell-based. As to conditions: African green monkey.
Data set [3] is described as follows: Cytotoxicity in Huh7 cells (no viral infection). The class given is cell-based. As to conditions: human, without viral infection, read-out: HCoV OC43 (Huh7) CC50. As to the method:
(§1) Determination of the inhibitory activity of compounds on the replication of respiratory syncytial virus (RSV), human coronavirus OC43, influenza A virus, and Zika virus by Cytopathogenic effect (CPE): the experimental cells were inoculated at a certain cell density to 96 well cell culture plates, and cultured overnight in a 5% CO2, 37° C. incubator. The compounds and viruses were added the next day. Depending on the tested virus, the cells were cultured in an incubator for 3-7 days under 5% CO2, 33° C. or 37° C., until 80-95% of the cells in the virus-infected control wells without compound had pathological changes. Cell viability in each well was then detected with CellTiter-Glo or CCK-8. […] The cytotoxicity test method is the same as the corresponding antiviral test method, but without viral infection.
(§2) The antiviral activity and cytotoxicity of the compound are represented by the inhibition rate (%) of the compound on the virus-induced cellular viral effect and the cell viability (%), respectively. Calculation equations are as follows:
(§3) Cell viability (%)=(reading value of test well−average value of medium control)/(average value of cell control−average value of medium control)×100;
(§4) EC50 and CC50 values were calculated by Prism software, and the inhibition curve fitting method was “log (inhibitor) vs. response—Variable slope”.

In data set [4] the test system is respiratory syncytial virus (RSV). In words: Inhibition of respiratory syncytial virus replication by CPE in HEp-2. In kind it is cell-based. The following applies: human respiratory syncytial virus, HEp-2, read-out: RSV (HEp-2) EC50.
Data set [5] relates to dengue virus (DENV). The data set can be described thus: Dengue virus plaque reduction assay in Vero cells. In kind it is cell-based. As to conditions: read-out: DENV (Vero) Inhibition rate at 5 μM. As to the method: Determination of the inhibitory activity of compounds against dengue virus by plaque reduction assay: Vero cells were inoculated into 6-well cell culture plates at a density of 600,000 cells per well, and cultured overnight in a 5% CO2, 37° C. incubator. The compounds and virus (40-50 PFU/well) were added the next day. The cells were cultured in an incubator at 5% CO2 and 37° C. for 2 hours, then the supernatant was aspirated, and the low-melting point agarose culture medium containing the corresponding concentration of the compound was added. The cells were cultured in an incubator at 5% CO2, 33° C. or 37° C. for 6-7 days, until obvious virus plaques could be observed in the virus-infected control wells without compound under the microscope. Cells were fixed with 4% paraformaldehyde and stained with crystal violet. The number of plaques in each well was calculated. Cytotoxicity experiments were performed in parallel with antiviral experiments. Vero cells were inoculated into 96-well cell culture plates at a density of 20,000 cells per well, and cultured overnight in a 5% CO2, 37° C. incubator. The compounds were added the next day (1-5 concentration points, single point). The cells were cultured in an incubator at 5% CO2, 33° C. or 37° C. for 6-7 days. Cell viability in each well was then detected with CCK-8.
(Plaques are areas of infected cells; plaque reduction assays count them against a control.)

Data set [6] is described as follows: in vitro. The following applies: human.
Data set [7] has as its system influenza A virus (H3N2). In words: Inhibition of influenza virus H3N2 replication by CPE in MDCK. The class given is cell-based. The following applies: MDCK cells.
Data set [8] can be described thus: Cytotoxicity in MDCK cells (no viral infection). In kind it is cell-based. As to conditions: dog, without viral infection, read-out: H3N2 (MDCK) CC50. As to the method: as §1, §2, §3, §4
Data set [9] deals with Zika virus. The data set can be described thus: Inhibition of Zika virus replication by CPE in Huh7. The class given is cell-based. As to conditions: Huh-7, read-out: Zika (Huh7) Inhibition rate.
The conditions of data set [10]: in monkeys; cited from earlier work.
The subject of data set [11] is porcine epidemic diarrhea virus (PEDV). In words: Inhibition of PEDV replication in Vero cells by fluorescent quantitative PCR. As to conditions: 36 h, read-out: PEDV (Vero) EC50.

Take `[2H]c1cc([C@]2(C#N)O[C@H](CO)[C@@H](O)[C@H]2O)n2ncnc(N)c12` [Compound C22-0]: the results for the EC50 in data set [1] and in [4] were 460 nM and 560 nM, respectively. For the same compound, the CC50 in [2], in [3] and in [6] was more than 10000 nM throughout. Further, in data set [5], the inhibition at 5 µM worked out at 100%.

Regarding `O=c1nc(NO)ccn1[C@@H]1O[C@H](CO)[C@@H](O)[C@H]1O` [NHC, β-d-N4-hydroxycytidine], the EC50 in [1] was found to be 300 nM; in data set [4], 4600 nM; in data set [7] it was 770 nM; in data set [11], 1170 nM. Further, the CC50 in data set [2], in [8] and in data set [6] was more than 10000 nM each time. Further, the inhibition at 5 µM in [9] worked out at 66%; in data set [5] it was 40%. Also, in data set [10], the oral bioavailability entry was “less than 10%”.

One may read the EC50 as the concentration needed to bring the measured effect to its halfway point. The term inhibition denotes the drop in the measured response relative to a control, in per cent.
